# Experimental data published in ChEMBL document CHEMBL3994639, “Identification of novel ROS inducer by merging the fragments of piperlongumine and dicoumarol” (Bioorg Med Chem Lett, 2017).
# pIC50: −log10 of the molar value. The source made the active and inactive calls. The rule behind the calls is not given here.
# How the values were obtained:
# HCT-116 = assay: Cytotoxicity against human HCT116 cells assessed as growth inhibition after 72 hrs by MTT assay; type: functional, cell-based; conditions: HCT-116, 72 h
# HepG2 = assay: Cytotoxicity against human HepG2 cells assessed as growth inhibition after 72 hrs by MTT assay; type: functional, cell-based; conditions: HepG2, 72 h
# A549 [1] = assay: Cytotoxicity against human A549 cells assessed as growth inhibition after 72 hrs by MTT assay; type: functional, cell-based; conditions: A549, 72 h
# MRC5 = assay: Cytotoxicity against human MRC5 cells after 72 hrs by MTT assay; type: cell-based; conditions: MRC5, 72 h
# Mus musculus = assay: Toxicity in human A549 cells xenografted athymic nude mouse assessed as body weight loss at 5 mg/kg, ip administered every other day for 21 days; type: organism-based; conditions: in vivo, 504 h
# [2] = Permeability of the compound at pH 7.4; type: physicochemical; conditions: not told, read-out: permeability
# A549 [3] = assay: Antitumor activity in human A549 cells xenografted in athymic nude mouse assessed as tumor growth inhibition at 5 mg/kg, ip administered every other day for 21 days; type: functional; conditions: 504 h, read-out: TGI
# A549 [4] = assay: Induction of apoptosis in human A549 cells assessed as nuclei condensation after 24 hrs by DAPI staining based immunofluorescence microscopic analysis; type: functional, cell-based
# [5] = Intrinsic solubility of the compound; type: physicochemical; conditions: read-out: Intrinsic_solubility
# [6] = Lipophilicity, log D of compound at pH 7.4; type: physicochemical; conditions: buffer
Structure (SMILES),pIC50 (HCT-116),pIC50 (HepG2),pIC50 (A549 [1]),pIC50 (MRC5),Activity (Mus musculus),Papp [2] [nm/s],inhibition in vivo at 5 mg/kg (A549 [3]) [%],Activity (A549 [4]),solubility [5] [mg/mL],logD [6]
COc1ccc2oc(=O)c(/C=C/C(=O)N3CCC=CC3=O)c(O)c2c1,5.00,5.15,5.01,4.28,–,–,–,–,–,–
COc1cc2c(O)c(/C=C/C(=O)N3CCC=CC3=O)c(=O)oc2c(OC)c1OC,5.49,5.24,5.38,4.24,Non-Toxic,202,48.5,Active,0.316,–
O=C1C=CCCN1C(=O)/C=C/c1c(O)c2ccc(Cl)cc2oc1=O,4.92,4.82,5.19,4.72,–,–,–,–,–,–
COc1ccc2c(O)c(/C=C/C(=O)N3CCC=CC3=O)c(=O)oc2c1,4.74,4.92,4.96,4.51,–,–,–,–,–,–
Cc1cc2oc(=O)c(/C=C/C(=O)N3CCC=CC3=O)c(O)c2cc1C,5.29,5.11,4.82,4.46,–,–,–,–,–,–
COc1cc(/C=C/C(=O)N2CCC=CC2=O)cc(OC)c1OC [PIPLARTINE],5.04,5.05,5.00,4.43,–,246,41.2,–,0.00075,2.84
O=C1CCCCN1C(=O)CCc1c(O)c2ccccc2oc1=O,< 4.05,< 4.05,< 4.05,4.24,–,–,–,–,–,–
O=C1C=CCCN1C(=O)/C=C/c1c(O)c2ccccc2oc1=O,4.82,5.17,4.92,4.66,–,–,–,–,–,–
CC(C(=O)O)c1cccc(C(=O)c2ccccc2)c1 (configuration not stated) [KETOPROFEN],–,–,–,–,–,19.8,–,–,–,–
O=C1C=CCCN1C(=O)/C=C/c1c(O)c2ccc(F)cc2oc1=O,4.96,5.01,4.74,5.05,–,–,–,–,–,–
CC(C)NCC(O)COc1cccc2ccccc12 (configuration not stated) [PROPRANOLOL],–,–,–,–,–,1170,–,–,–,–
